Laboratory results taken from patent US20060110456A1, “Method for biocidal and/or biostatic treatment and compositions therefor” (NATIONAL UNIVERSITY OF SINGAPORE, priority 2004, published 2006).
Where a name gives a salt, the structure may show the parent alone.

Key:
[1] = tested on: marine bacteria (ten strains); assay: Bacteriostatic vs bacteriocidal activity from growth assay: absorbance and CFU counts; format: cell-based, marine bacteria isolated from Singapore fouling communities; conditions: 50 μg ml^−1
Description: Bacteria strains (1, 4, 9, 14, 18, 20, 27, 28, 29, 30) representing a variety of morphological types were used.
For each well, […] of a 100 μg ml^−1 drug solution in sterile distilled water, was added to 45 μl of Marine Broth. Controls for growth consisted of 50 μl of sterile deionized water and 45 μl of marine broth. All wells used for growth studies were prepared in triplicate and inoculated with 5 μl of the bacterial suspension. Blanks consisting of the above volumes of pharmaceutical with Marine Broth and distilled water, were prepared in triplicate and inoculated with 5 μl of sterile seawater. Immediately after adding all the components to the wells for the growth studies, 10 μl was removed and used to inoculate plates of Marine Agar to determine colony-forming units (CFU). The absorbance (A600) of each well was read in the plate reader immediately.
The inoculated plates of Marine Agar were incubated overnight on a rotary shaker (150 rpm) at 30° C. inside a moistened airtight container. After incubation, the absorbance was read again and another 10 μl was removed and used to inoculate Marine Agar plates to determine CFU.
The difference in absorbance over 24 hours for each bacterial strain versus controls and treatments were plotted in FIGS. 3 to 6 for each of the four drugs. The data was analyzed using 1-tailed t-test.

marine bacteria = assay: Growth assay (absorbance, 96-well plates); format: cell-based, marine bacteria isolated from Singapore fouling communities; conditions: 25 μg ml^−1
Description: The dried powder was re-suspended in sterile deionized water and made up to 2 mg ml^−1.
The same bacterial strains were used and cultured the same way as in disc inhibition assay. Cells were harvested by centrifugation at 300 rpm for 10 min. The supernatant was discarded and the pellet re-suspended using sterile seawater collected from St. John's island, Singapore. The concentration of bacterial cells was adjusted to an absorbance of approximately 0.6 using a spectrophotometer (Beckman DU530) at wavelength 600 nm.
The growth with response to the pharmaceuticals was assumed to be proportional to the absorbance of the bacteria. […] To each well 25 μl of each drug solution (concentration adjusted to 100 μg ml^−1) were pipetted into three wells followed by 10 μl of broth and 65 μl of sterile seawater. For wells that were to contain bacteria, 60 μl of sterile seawater was used instead. All wells used for growth studies were prepared in triplicate and inoculated with 5 μl of the bacterial suspension. Blanks consisting of the respective volumes of pharmaceutical with Marine Broth and distilled water, if needed, were prepared in triplicate and inoculated with 5 μl of sterile seawater.
The absorbance (A600) of each well was read in a plate reader (Sunrise Tecan Model F039300) immediately (time=0 hours) and after 1, 2, 3, 4, 20, 23 and 28 hours. Plates were incubated overnight inside a moistened airtight container.
Any changes in absorbance were plotted and compared with control. The mean absorbance (mean bac) from the bacteria was obtained by deducting the absorbance values of blank wells (containing seawater and broth only) from that for the control wells (containing bacteria in seawater and broth only). The absorbance arising from the drugs was obtained from the 0 hr reading for wells containing drugs and bacteria, minus the wells with drugs alone (mean “drug”). The growth assays were repeated three times.

## CN1CCN(CCCN2c3ccccc3Sc3ccc(C(F)(F)F)cc32)CC1 [TFZ, Trifluoperazine hydrochloride]
[1]
  Killing of bacteria (decrease in absorbance and CFU counts): strain 14 was not killed
[1]; strains 1, 4, 9, 14, 18, 20, 27, 28, 29, 30
  Growth assay: 24-hour change in absorbance for ten strains: only strain numbers 1 and 14 grew in the presence of TFZ
[1]; strain 1 (Rhodovulum)
  Change in CFU count after 24 hours: 0
  Inhibition of bacterial growth: 0
  Result (bacteriostatic / bacteriocidal / no effect): no effect
[1]; strain 4 (Bacillus)
  Inhibition of bacterial growth: +++ (+++ denotes little or no growth, p < 0.001)
  Result (bacteriostatic / bacteriocidal / no effect): bacteriocidal
[1]; strain 9 (Bacillus)
  Inhibition of bacterial growth: +++ (+++ denotes little or no growth, p < 0.001)
  Result (bacteriostatic / bacteriocidal / no effect): bacteriocidal
[1]; strain 14 (Vibrio)
  Change in CFU count after 24 hours: 0
  Inhibition of bacterial growth: 0
  Result (bacteriostatic / bacteriocidal / no effect): no effect
[1]; strain 18 (Microbacterium)
  Inhibition of bacterial growth: +++ (+++ denotes little or no growth, p < 0.001)
  Result (bacteriostatic / bacteriocidal / no effect): bacteriostatic
[1]; strain 20
  Inhibition of bacterial growth: +++ (+++ denotes little or no growth, p < 0.001)
  Result (bacteriostatic / bacteriocidal / no effect): bacteriostatic
[1]; strain 27
  Inhibition of bacterial growth: +++ (+++ denotes little or no growth, p < 0.001)
  Result (bacteriostatic / bacteriocidal / no effect): bacteriocidal
[1]; strain 28
  Inhibition of bacterial growth: +++ (+++ denotes little or no growth, p < 0.001)
  Result (bacteriostatic / bacteriocidal / no effect): bacteriostatic
[1]; strain 29
  Inhibition of bacterial growth: +++ (+++ denotes little or no growth, p < 0.001)
  Result (bacteriostatic / bacteriocidal / no effect): bacteriocidal
[1]; strain 30
  Inhibition of bacterial growth: +++ (+++ denotes little or no growth, p < 0.001)
  Result (bacteriostatic / bacteriocidal / no effect): bacteriostatic
Marine bacteria; 25 strains of Table 5
  Number of strains with strongly inhibited growth: 14
Marine bacteria; strain 1 (Rhodovulum)
  Inhibition of bacterial growth: 0
Marine bacteria; strain 2 (Erythrobacter)
  Inhibition of bacterial growth: 0
Marine bacteria; strain 3 (Erythrobacter)
  Inhibition of bacterial growth: +++ (+++ denotes little or no growth, p < 0.001)
Marine bacteria; strain 4 (Bacillus)
  Inhibition of bacterial growth: +++ (+++ denotes little or no growth, p < 0.001)
Marine bacteria; strain 6 (Vibrio)
  Inhibition of bacterial growth: + (+ denotes growth present but inhibited, p < 0.01)
Marine bacteria; strain 7 (Vibrio)
  Inhibition of bacterial growth: + (+ denotes growth present but inhibited, p < 0.01)
Marine bacteria; strain 8 (Bacillus)
  Inhibition of bacterial growth: + (+ denotes growth present but inhibited, p < 0.01)
Marine bacteria; strain 9 (Bacillus)
  Inhibition of bacterial growth: +++ (+++ denotes little or no growth, p < 0.001)
Marine bacteria; strain 10 (Halobacillus)
  Inhibition of bacterial growth: +++ (+++ denotes little or no growth, p < 0.001)
Marine bacteria; strain 11 (Pseudomonas)
  Inhibition of bacterial growth: + (+ denotes growth present but inhibited, p < 0.01)
Marine bacteria; strain 12 (Gordonia)
  Inhibition of bacterial growth: +++ (+++ denotes little or no growth, p < 0.001)
Marine bacteria; strain 13 (Bacillus)
  Inhibition of bacterial growth: +++ (+++ denotes little or no growth, p < 0.001)
Marine bacteria; strain 14 (Vibrio)
  Inhibition of bacterial growth: 0
Marine bacteria; strain 16 (Pseudoalteromonas)
  Inhibition of bacterial growth: 0
Marine bacteria; strain 17 (Gordonia)
  Inhibition of bacterial growth: +++ (+++ denotes little or no growth, p < 0.001)
Marine bacteria; strain 18 (Microbacterium)
  Inhibition of bacterial growth: +++ (+++ denotes little or no growth, p < 0.001)
Marine bacteria; strain 19 (Erythrobacter)
  Inhibition of bacterial growth: +++ (+++ denotes little or no growth, p < 0.001)
Marine bacteria; strain 20
  Inhibition of bacterial growth: + (+ denotes growth present but inhibited, p < 0.01)
Marine bacteria; strain 21
  Inhibition of bacterial growth: 0
Marine bacteria; strain 24
  Inhibition of bacterial growth: + (+ denotes growth present but inhibited, p < 0.01)
Marine bacteria; strain 26
  Inhibition of bacterial growth: 0
Marine bacteria; strain 27
  Inhibition of bacterial growth: +++ (+++ denotes little or no growth, p < 0.001)
Marine bacteria; strain 28
  Inhibition of bacterial growth: +++ (+++ denotes little or no growth, p < 0.001)
Marine bacteria; strain 29
  Inhibition of bacterial growth: +++ (+++ denotes little or no growth, p < 0.001)
Marine bacteria; strain 30
  Inhibition of bacterial growth: +++ (+++ denotes little or no growth, p < 0.001)
